Reference: the NIST ThermoML archive (doi:10.1021/je060271a)
Values joined by “and” are separate entries in the source; they are usually repeats but may differ in a detail not shown here. Identical values can stand only once.

Settings: Liquid, Vibrating tube method

CCCCCCC(=O)OCC(COC(=O)CCCCCC)(COC(=O)CCCCCC)COC(=O)CCCCCC [pentaerythritol tetraheptanoate]
Settings | mass density
323.14 K, 25915 kPa | 972.2 kg/m3
323.14 K, 25942 kPa | 972.3 kg/m3
323.14 K, 25974 kPa | 972.2 kg/m3
323.14 K, 26002 kPa | 972.3 kg/m3
323.14 K, 26088 kPa | 972.3 kg/m3
323.14 K, 26774 kPa | 972.7 kg/m3
323.14 K, 26808 kPa | 972.6 kg/m3
323.14 K, 26837 kPa | 972.6 kg/m3
323.14 K, 26866 kPa | 972.9 kg/m3
323.14 K, 27024 kPa | 972.9 kg/m3
323.14 K, 27055 kPa | 972.9 kg/m3
323.14 K, 27085 kPa | 972.9 kg/m3
323.14 K, 27114 kPa | 973 kg/m3
323.14 K, 27150 kPa | 973 kg/m3
323.14 K, 27179 kPa | 972.9 kg/m3
323.14 K, 27214 kPa | 973 kg/m3
323.14 K, 27244 kPa | 973 kg/m3
323.14 K, 27274 kPa | 973.1 kg/m3
323.14 K, 27565 kPa | 973.2 kg/m3
323.14 K, 27596 kPa | 973.2 kg/m3
323.14 K, 27731 kPa | 973.3 kg/m3
323.14 K, 27762 kPa | 973.3 kg/m3
323.14 K, 27825 kPa | 973.3 kg/m3
323.14 K, 27863 kPa | 973.4 kg/m3
323.14 K, 27895 kPa | 973.4 kg/m3
323.14 K, 28027 kPa | 973.5 kg/m3
323.14 K, 28373 kPa | 973.8 kg/m3
323.14 K, 28406 kPa | 973.7 kg/m3
323.14 K, 28439 kPa | 973.7 kg/m3
323.14 K, 28757 kPa | 973.8 kg/m3
323.14 K, 28791 kPa | 973.9 kg/m3
323.14 K, 28831 kPa | 973.9 kg/m3
323.14 K, 28904 kPa | 973.9 kg/m3
323.14 K, 28938 kPa | 974 kg/m3
323.14 K, 28973 kPa | 974.1 kg/m3
323.14 K, 29048 kPa | 974.1 kg/m3
323.14 K, 29083 kPa | 974.1 kg/m3
323.14 K, 29124 kPa | 974.1 kg/m3
323.14 K, 29158 kPa | 974.1 kg/m3
323.14 K, 29193 kPa | 974.1 kg/m3
323.14 K, 29227 kPa | 974.2 kg/m3
323.14 K, 29270 kPa | 974.2 kg/m3
323.14 K, 29304 kPa | 974.3 kg/m3
323.14 K, 29346 kPa | 974.3 kg/m3
323.14 K, 29381 kPa | 974.2 kg/m3
323.14 K, 29416 kPa | 974.2 kg/m3
323.14 K, 29451 kPa | 974.2 kg/m3
323.14 K, 29494 kPa | 974.4 kg/m3
323.14 K, 29529 kPa | 974.4 kg/m3
323.14 K, 30197 kPa | 974.6 kg/m3
323.14 K, 30480 kPa | 974.8 kg/m3
323.14 K, 30518 kPa | 975 kg/m3
323.14 K, 30556 kPa | 974.9 kg/m3
323.14 K, 30596 kPa | 974.9 kg/m3
323.14 K, 30642 kPa | 975 kg/m3
323.14 K, 30681 kPa | 975.1 kg/m3
323.14 K, 30728 kPa | 975.2 kg/m3
323.14 K, 30768 kPa | 975 kg/m3
323.14 K, 30807 kPa | 975.1 kg/m3
323.14 K, 30846 kPa | 975 kg/m3
323.14 K, 30893 kPa | 975.2 kg/m3
323.14 K, 30933 kPa | 975.1 kg/m3
323.14 K, 30973 kPa | 975.1 kg/m3
323.14 K, 31020 kPa | 975.2 kg/m3
323.14 K, 31060 kPa | 975.2 kg/m3
323.14 K, 31108 kPa | 975.2 kg/m3
323.14 K, 31148 kPa | 975.2 kg/m3
323.14 K, 31188 kPa | 975.3 kg/m3
323.14 K, 31237 kPa | 975.2 kg/m3
323.14 K, 31277 kPa | 975.4 kg/m3
323.14 K, 31319 kPa | 975.3 kg/m3
323.14 K, 31359 kPa | 975.4 kg/m3
323.14 K, 31408 kPa | 975.4 kg/m3
323.14 K, 31448 kPa | 975.4 kg/m3
323.14 K, 31497 kPa | 975.6 kg/m3
323.14 K, 31539 kPa | 975.5 kg/m3
323.14 K, 31580 kPa | 975.4 kg/m3
323.14 K, 31621 kPa | 975.5 kg/m3
323.14 K, 31671 kPa | 975.6 kg/m3
323.14 K, 31712 kPa | 975.5 kg/m3
323.14 K, 31762 kPa | 975.8 kg/m3
323.14 K, 31804 kPa | 975.8 kg/m3
323.14 K, 31847 kPa | 975.7 kg/m3
323.14 K, 31898 kPa | 975.6 kg/m3
323.14 K, 31940 kPa | 975.7 kg/m3
323.14 K, 31982 kPa | 975.8 kg/m3
323.14 K, 32450 kPa | 976.1 kg/m3
323.14 K, 32496 kPa | 976 kg/m3
323.14 K, 32540 kPa | 976 kg/m3
323.14 K, 32584 kPa | 976.2 kg/m3
323.14 K, 32637 kPa | 976.1 kg/m3
323.14 K, 32681 kPa | 976.1 kg/m3
323.14 K, 33266 kPa | 976.4 kg/m3
323.14 K, 33360 kPa | 976.5 kg/m3
323.14 K, 33416 kPa | 976.4 kg/m3
323.14 K, 34625 kPa | 977.3 kg/m3
323.15 K, 99.4 kPa | 955.6 kg/m3
323.15 K, 99.5 kPa | 955.5 kg/m3 and 955.6 kg/m3 and 955.7 kg/m3
323.15 K, 99.7 kPa | 955.7 kg/m3 and 955.6 kg/m3
323.15 K, 99.8 kPa | 955.7 kg/m3
323.15 K, 99.9 kPa | 955.7 kg/m3 and 955.8 kg/m3 and 955.6 kg/m3
323.15 K, 100 kPa | 955.7 kg/m3 and 955.8 kg/m3 and 955.6 kg/m3
323.15 K, 100.2 kPa | 955.7 kg/m3 [middle of 4 runs]
323.15 K, 100.4 kPa | 955.7 kg/m3 and 955.8 kg/m3 and 955.6 kg/m3
323.15 K, 100.5 kPa | 955.6 kg/m3 and 955.7 kg/m3
323.15 K, 100.6 kPa | 955.6 kg/m3 and 955.7 kg/m3 and 955.8 kg/m3
323.15 K, 100.7 kPa | 955.8 kg/m3 and 955.7 kg/m3 and 955.5 kg/m3
323.15 K, 100.9 kPa | 955.7 kg/m3
323.15 K, 101.1 kPa | 955.6 kg/m3 and 955.7 kg/m3
323.15 K, 101.3 kPa | 955.6 kg/m3
323.15 K, 101.5 kPa | 955.8 kg/m3 and 955.7 kg/m3
323.15 K, 101.6 kPa | 955.7 kg/m3
